Source: patent US11136329B2, “JAK inhibitors” (Vimalan Biosciences, Inc., priority 2019, dated 2021)

Tests used:
Type in all cases: biochemical
JAK1 = JAK1 (Homo sapiens (Human), UniProt P23458); assay: JAK/TYK2 assay (Kinase Glo luminescence), JAK1; details: 7.5 nM enzyme, 2 uM ATP, 30 uM IRS-1, 1 hr
Description: (§1) 10 mM test compound stock or 1 mM control compound stock (tofocitinib, ruxolitinib or staurosporine) in DMSO was diluted to 0.4 mM in DMSO. A 3-fold series dilution was then performed in DMSO to generate 10 different compound concentrations. The assay was carried out in 384-well white plate. 0.5 uL of 40× compound DMSO solution at different concentrations was mixed with 10 uL 2× enzyme prepared in reaction buffer (20 mM HEPES, 10 mM MgCl2, 0.01% Tween, 1 mM DTT, pH 7.5). 10 uL 2× substrate mixture prepared in reaction buffer was then added to start the reaction. A short spin was done to settle down all solutions to the bottom of the plate. Final concentrations of test compound in the reaction mixture were 10000, 3333, 1111, 370, 123, 41.2, 13.7, 4.57, 1.52and 0.51 nM. Concentrations of control compound were ten times less. Enzymatic reaction was conducted at 25° C. for 1-2 hours. 10 uL of Kinase Glo Reagents was added to stop the reaction and generate the luminescent signal which was measured using Envision. Luminescence signal was inversely related to kinase activity. […] The mixture without any compound was the positive control.

JAK2 = JAK2 (Homo sapiens (Human), UniProt O60674); assay: JAK/TYK2 assay (Kinase Glo luminescence), JAK2; details: 0.8 nM enzyme, 2 uM ATP, 4 uM pEY, 1 hr
Sequence of JAK2 (O60674 whole entry, species assumed): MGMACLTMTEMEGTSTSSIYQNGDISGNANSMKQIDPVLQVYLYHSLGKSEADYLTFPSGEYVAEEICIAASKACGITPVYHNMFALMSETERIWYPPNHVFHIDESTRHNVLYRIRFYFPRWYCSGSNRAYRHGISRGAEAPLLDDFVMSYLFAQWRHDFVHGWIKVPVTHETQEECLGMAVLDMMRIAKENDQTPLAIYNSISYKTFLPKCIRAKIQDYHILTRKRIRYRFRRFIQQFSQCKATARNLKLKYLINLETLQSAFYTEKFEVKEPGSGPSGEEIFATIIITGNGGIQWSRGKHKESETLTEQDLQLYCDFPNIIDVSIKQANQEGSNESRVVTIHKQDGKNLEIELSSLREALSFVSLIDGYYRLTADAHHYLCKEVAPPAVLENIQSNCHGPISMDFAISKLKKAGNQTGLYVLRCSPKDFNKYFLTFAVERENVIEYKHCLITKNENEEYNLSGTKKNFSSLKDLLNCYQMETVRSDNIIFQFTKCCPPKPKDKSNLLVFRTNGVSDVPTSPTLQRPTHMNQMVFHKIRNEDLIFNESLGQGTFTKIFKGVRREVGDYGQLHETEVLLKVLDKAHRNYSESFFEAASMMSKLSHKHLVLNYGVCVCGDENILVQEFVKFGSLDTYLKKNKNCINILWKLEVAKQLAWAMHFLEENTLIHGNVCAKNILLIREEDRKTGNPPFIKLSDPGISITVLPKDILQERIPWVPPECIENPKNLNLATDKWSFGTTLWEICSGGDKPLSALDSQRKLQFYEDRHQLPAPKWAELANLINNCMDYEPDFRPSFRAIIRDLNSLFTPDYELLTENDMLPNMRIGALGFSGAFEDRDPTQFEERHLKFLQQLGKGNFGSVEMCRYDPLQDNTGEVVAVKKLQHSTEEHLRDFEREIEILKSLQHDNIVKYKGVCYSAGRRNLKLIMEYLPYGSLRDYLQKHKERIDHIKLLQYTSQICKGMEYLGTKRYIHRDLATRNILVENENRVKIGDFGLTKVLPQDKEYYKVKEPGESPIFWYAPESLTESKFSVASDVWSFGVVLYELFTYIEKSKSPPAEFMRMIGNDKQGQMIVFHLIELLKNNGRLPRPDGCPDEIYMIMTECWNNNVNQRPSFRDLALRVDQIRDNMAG
Description: as §1

JAK3 = JAK3 (Homo sapiens (Human), UniProt P52333); assay: JAK/TYK2 assay (Kinase Glo luminescence), JAK3; details: 1.5 nM enzyme, 2 uM ATP, 4 uM pEY, 1 hr
Sequence of JAK3 (P52333 whole entry, species assumed): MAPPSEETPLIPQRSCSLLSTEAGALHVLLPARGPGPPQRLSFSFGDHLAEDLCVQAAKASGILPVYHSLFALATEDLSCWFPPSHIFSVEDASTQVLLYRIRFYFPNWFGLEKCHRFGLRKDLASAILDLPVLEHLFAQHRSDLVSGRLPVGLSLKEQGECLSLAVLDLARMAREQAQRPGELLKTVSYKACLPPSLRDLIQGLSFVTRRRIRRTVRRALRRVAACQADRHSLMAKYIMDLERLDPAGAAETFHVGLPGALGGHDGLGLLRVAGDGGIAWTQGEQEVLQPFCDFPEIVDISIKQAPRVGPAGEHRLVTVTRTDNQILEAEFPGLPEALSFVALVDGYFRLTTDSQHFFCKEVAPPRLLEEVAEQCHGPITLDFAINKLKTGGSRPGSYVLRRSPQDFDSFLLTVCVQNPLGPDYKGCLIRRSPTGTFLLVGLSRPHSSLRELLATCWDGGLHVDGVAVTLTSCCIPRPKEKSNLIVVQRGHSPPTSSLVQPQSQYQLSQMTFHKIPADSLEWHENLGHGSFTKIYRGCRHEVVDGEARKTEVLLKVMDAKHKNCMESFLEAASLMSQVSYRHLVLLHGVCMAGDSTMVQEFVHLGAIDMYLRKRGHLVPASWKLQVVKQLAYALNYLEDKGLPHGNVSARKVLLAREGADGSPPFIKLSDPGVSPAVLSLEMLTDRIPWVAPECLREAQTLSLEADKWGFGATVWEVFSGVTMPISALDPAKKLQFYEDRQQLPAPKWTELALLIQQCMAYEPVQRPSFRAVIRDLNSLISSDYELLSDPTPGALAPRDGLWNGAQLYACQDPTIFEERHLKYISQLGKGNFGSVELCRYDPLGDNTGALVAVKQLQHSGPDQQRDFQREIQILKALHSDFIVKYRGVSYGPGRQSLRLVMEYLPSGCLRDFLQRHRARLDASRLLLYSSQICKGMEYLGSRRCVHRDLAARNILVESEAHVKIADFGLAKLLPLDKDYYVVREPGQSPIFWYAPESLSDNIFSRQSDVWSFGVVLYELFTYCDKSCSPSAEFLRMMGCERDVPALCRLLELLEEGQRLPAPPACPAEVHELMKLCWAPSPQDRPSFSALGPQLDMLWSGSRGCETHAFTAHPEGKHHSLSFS
Description: as §1

TYK2 = TYK2 (Homo sapiens (Human), UniProt P29597); assay: JAK/TYK2 assay (Kinase Glo luminescence), TYK2; details: 9 nM enzyme, 2 uM ATP, 30 uM IRS-1, 1 hr
Sequence of TYK2 (P29597 whole entry, species assumed): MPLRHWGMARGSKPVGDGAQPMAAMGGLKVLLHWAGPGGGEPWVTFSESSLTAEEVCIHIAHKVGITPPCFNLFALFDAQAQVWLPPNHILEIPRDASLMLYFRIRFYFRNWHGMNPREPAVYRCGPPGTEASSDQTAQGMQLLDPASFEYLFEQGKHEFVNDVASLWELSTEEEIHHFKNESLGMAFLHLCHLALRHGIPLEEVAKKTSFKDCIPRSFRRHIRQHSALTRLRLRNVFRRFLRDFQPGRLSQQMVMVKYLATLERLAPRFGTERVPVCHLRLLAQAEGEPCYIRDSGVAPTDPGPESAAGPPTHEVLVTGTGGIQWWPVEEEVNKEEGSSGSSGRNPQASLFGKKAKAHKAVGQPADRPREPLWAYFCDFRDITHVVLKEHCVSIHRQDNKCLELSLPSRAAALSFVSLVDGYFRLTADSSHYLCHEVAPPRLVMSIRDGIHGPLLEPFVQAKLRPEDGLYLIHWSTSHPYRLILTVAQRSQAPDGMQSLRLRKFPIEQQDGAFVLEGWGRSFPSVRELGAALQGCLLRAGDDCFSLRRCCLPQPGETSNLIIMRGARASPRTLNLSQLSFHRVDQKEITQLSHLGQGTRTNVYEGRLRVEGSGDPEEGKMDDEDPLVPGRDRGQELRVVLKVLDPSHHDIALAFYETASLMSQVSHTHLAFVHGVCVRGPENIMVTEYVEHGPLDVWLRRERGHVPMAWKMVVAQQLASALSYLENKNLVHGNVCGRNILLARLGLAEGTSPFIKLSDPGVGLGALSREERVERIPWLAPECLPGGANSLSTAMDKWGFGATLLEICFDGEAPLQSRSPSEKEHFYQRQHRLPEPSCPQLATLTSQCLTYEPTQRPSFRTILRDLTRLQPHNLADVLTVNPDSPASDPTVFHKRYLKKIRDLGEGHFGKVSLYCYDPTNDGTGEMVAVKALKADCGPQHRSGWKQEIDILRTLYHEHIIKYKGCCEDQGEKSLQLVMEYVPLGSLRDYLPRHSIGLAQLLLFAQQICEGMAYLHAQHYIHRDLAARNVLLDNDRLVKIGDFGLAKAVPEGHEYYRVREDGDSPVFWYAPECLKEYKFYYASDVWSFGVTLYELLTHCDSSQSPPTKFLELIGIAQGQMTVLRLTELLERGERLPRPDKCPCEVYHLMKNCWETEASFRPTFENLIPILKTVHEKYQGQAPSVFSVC
Description: as §1

Sequence of JAK1 (P23458 whole entry, species assumed): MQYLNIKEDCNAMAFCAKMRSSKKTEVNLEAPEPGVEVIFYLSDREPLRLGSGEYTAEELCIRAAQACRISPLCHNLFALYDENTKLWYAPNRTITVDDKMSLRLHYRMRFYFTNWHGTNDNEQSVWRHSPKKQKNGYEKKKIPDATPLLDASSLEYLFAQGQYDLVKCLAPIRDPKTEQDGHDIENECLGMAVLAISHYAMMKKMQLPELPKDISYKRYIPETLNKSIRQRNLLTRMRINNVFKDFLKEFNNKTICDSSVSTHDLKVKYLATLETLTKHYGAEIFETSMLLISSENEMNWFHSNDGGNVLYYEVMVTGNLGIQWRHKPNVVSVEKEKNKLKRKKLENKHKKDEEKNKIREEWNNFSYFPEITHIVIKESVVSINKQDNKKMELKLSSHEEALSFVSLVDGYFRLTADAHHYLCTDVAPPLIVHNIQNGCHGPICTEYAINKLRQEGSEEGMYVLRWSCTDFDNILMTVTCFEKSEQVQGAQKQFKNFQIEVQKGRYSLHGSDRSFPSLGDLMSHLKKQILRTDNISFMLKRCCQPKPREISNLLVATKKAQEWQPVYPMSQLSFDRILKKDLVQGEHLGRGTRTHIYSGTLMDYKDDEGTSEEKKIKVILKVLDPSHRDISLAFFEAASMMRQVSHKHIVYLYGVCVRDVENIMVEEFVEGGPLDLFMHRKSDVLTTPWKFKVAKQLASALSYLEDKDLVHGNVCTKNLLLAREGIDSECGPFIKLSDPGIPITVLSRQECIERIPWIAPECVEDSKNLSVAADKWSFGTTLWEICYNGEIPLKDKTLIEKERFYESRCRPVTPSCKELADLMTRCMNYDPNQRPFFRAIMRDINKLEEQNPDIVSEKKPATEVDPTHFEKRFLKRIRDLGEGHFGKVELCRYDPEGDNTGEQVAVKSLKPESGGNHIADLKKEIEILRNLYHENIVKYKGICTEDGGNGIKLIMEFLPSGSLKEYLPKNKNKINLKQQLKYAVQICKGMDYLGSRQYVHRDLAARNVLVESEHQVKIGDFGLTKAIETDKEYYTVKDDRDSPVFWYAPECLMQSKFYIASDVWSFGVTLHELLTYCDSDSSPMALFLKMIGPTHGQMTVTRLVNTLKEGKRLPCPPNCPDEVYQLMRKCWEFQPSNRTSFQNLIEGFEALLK

Row | IC50 (JAK1) [nM] | IC50 (JAK2) [nM] | IC50 (JAK3) [nM] | IC50 (TYK2) [nM] | Structure (SMILES)
1 | < 100 | < 100 | < 100 | < 100 | CCC(Cn1ccc2cnc(Nc3cnn(CC(=O)OC(C)C(C)O)c3)nc21)C(C)C (stereo not shown) [Compound 109, 3-hydroxybutan-2-yl 2-(4-((7-(2-ethyl-3-methylbutyl)-7H-pyrrolo[2,3-d]pyrimidin-2-yl)amino)-1H-pyrazol-1-yl)acetate]
2 | < 100 | < 100 | < 100 | < 100 | CCC(Cn1ccc2cnc(Nc3cnn(CC(=O)O[C@@H](C)CO)c3)nc21)C(C)C (stereo partly drawn) [Compound 105, (S)-1-hydroxypropan-2-yl 2-(4-((7-(2-ethyl-3-methylbutyl)-7H-pyrrolo[2,3-d]pyrimidin-2-yl)amino)-1H-pyrazol-1-yl)acetate]
3 | < 100 | < 100 | < 100 | < 100 | CCC(Cn1ccc2cnc(Nc3cnn(CC(=O)O)c3)nc21)C(C)C (stereo not shown) [Compound 29, 2-(4-((7-(2-ethyl-3-methylbutyl)-7H-pyrrolo[2,3-d]pyrimidin-2-yl)amino)-1H-pyrazol-1-yl)acetic acid]
4 | < 100 | < 100 | < 100 | < 100 | CCC(CC)Cn1ccc2cnc(Nc3cnn(CC(=O)OCCO)c3)nc21 [Compound 90, 2-hydroxyethyl 2-(4-((7-(2-ethylbutyl)-7H-pyrrolo[2,3-d]pyrimidin-2-yl)amino)-1H-pyrazol-1-yl)acetate]
5 | 1000 to 10000 | 100 to 1000 | 100 to 1000 | 100 to 1000 | CCOC(=O)Cn1ccc(Nc2ncc3ccn(CC(CC)CC)c3n2)n1 [Compound 44, ethyl 2-(3-((7-(2-ethylbutyl)-7H-pyrrolo[2,3-d]pyrimidin-2-yl)amino)-1H-pyrazol-1-yl)acetate]
6 | < 100 | < 100 | < 100 | < 100 | CCOC(=O)Cn1cc(Nc2ncc3ccn(CC(CC)CC)c3n2)cn1 [Compound 8, ethyl 2-(4-((7-(2-ethylbutyl)-7H-pyrrolo[2,3-d]pyrimidin-2-yl)amino)-1H-pyrazol-1-yl)acetate]
7 | < 100 | < 100 | < 100 | < 100 | CCOC(=O)Cn1cc(Nc2ncc3ccn(CC4CC5CCC4C5)c3n2)cn1 (stereo not shown) [Compound 40, ethyl 2-(4-((7-(bicyclo[2.2.1]heptan-2-ylmethyl)-7H-pyrrolo[2,3-d]pyrimidin-2-yl)amino)-1H-pyrazol-1-yl)acetate]
8 | < 100 | < 100 | < 100 | < 100 | CCOC(=O)Cn1cc(Nc2ncc3ccn(CC(CC)C(C)C)c3n2)cn1 (stereo not shown) [Compound 49, ethyl 2-(4-((7-(2-ethyl-3-methylbutyl)-7H-pyrrolo[2,3-d]pyrimidin-2-yl)amino)-1H-pyrazol-1-yl)acetate]
9 | < 100 | < 100 | < 100 | < 100 | CC[C@H](Cn1ccc2cnc(Nc3cnn(C4CC(C)(C)OC4=O)c3)nc21)C(C)C (stereo partly drawn) [Compound 144, 3-(4-((7-((S)-2-ethyl-3-methylbutyl)-7H-pyrrolo[2,3-d]pyrimidin-2-yl)amino)-1H-pyrazol-1-yl)-5,5-dimethyldihydrofuran-2(3H)-one]
10 | < 100 | < 100 | < 100 | < 100 | CCC(Cn1ccc2cnc(Nc3cnn(CC(=O)OC(C)C)c3)nc21)C(C)C (stereo not shown) [Compound 83, isopropyl 2-(4-((7-(2-ethyl-3-methylbutyl)-7H-pyrrolo[2,3-d]pyrimidin-2-yl)amino)-1H-pyrazol-1-yl)acetate]
11 | < 100 | < 100 | < 100 | < 100 | CC[C@H](Cn1ccc2cnc(Nc3cnn(C(CCO)C(=O)O)c3)nc21)C(C)C (stereo partly drawn) [Compound 136, 2-(4-((7-((S)-2-ethyl-3-methylbutyl)-7H-pyrrolo[2,3-d]pyrimidin-2-yl)amino)-1H-pyrazol-1-yl)-4-hydroxybutanoic acid]
12 | < 100 | < 100 | < 100 | < 100 | CCOC(=O)Cn1cc(Nc2ncc3ccn(C[C@H](CC)C(C)C)c3n2)cn1 [Compound 133, ethyl (R)-2-(4-((7-(2-ethyl-3-methylbutyl)-7H-pyrrolo[2,3-d]pyrimidin-2-yl)amino)-1H-pyrazol-1-yl)acetate]
13 | < 100 | < 100 | < 100 | < 100 | CCOC(=O)Cn1cc(Nc2ncc3ccn(CC4CCC(C)CC4)c3n2)cn1 (stereo not shown) [Compound 46, ethyl 2-(4-((7-((4-methylcyclohexyl)methyl)-7H-pyrrolo[2,3-d]pyrimidin-2-yl)amino)-1H-pyrazol-1-yl)acetate]
14 | < 100 | < 100 | < 100 | < 100 | CCOC(=O)C(C)(C)n1cc(Nc2ncc3ccn(CC(CC)CC)c3n2)cn1 [Compound 27, ethyl 2-(4-((7-(2-ethylbutyl)-7H-pyrrolo[2,3-d]pyrimidin-2-yl)amino)-1H-pyrazol-1-yl)-2-methylpropanoate]
15 | < 100 | < 100 | < 100 | < 100 | CN1CC[C@@H](OC(=O)Cn2cc(Nc3ncc4ccn(C[C@H]5CC[C@H](O)CC5)c4n3)cn2)C1 [Compound 146, (R)-1-methylpyrrolidin-3-yl 2-(4-((7-(((1r,4r)-4-hydroxycyclohexyl)methyl)-7H-pyrrolo[2,3-d]pyrimidin-2-yl)amino)-1H-pyrazol-1-yl)acetate]
16 | < 100 | < 100 | < 100 | < 100 | CCOC(=O)Cn1cc(Nc2ncc3ccn(C[C@@H]4C[C@@H]5C[C@@H]5C4)c3n2)cn1 [Compound 48, ethyl 2-(4-((7-(((1R,3r,5S)-bicyclo[3.1.0]hexan-3-yl)methyl)-7H-pyrrolo[2,3-d]pyrimidin-2-yl)amino)-1H-pyrazol-1-yl)acetate]
17 | < 100 | < 100 | < 100 | < 100 | CC[C@H](Cn1ccc2cnc(Nc3cnn([C@H]4CCOC4=O)c3)nc21)C(C)C [Compound 82B, (S)-3-(4-((7-((S)-2-ethyl-3-methylbutyl)-7H-pyrrolo[2,3-d]pyrimidin-2-yl)amino)-1H-pyrazol-1-yl)dihydrofuran-2(3H)-one]
18 | < 100 | < 100 | < 100 | < 100 | CCOC(=O)Cn1cc(Nc2ncc3ccn(CC(CC)CC#N)c3n2)cn1 (stereo not shown) [Compound 70, ethyl 2-(4-((7-(2-(cyanomethyl)butyl)-7H-pyrrolo[2,3-d]pyrimidin-2-yl)amino)-1H-pyrazol-1-yl)acetate]
19 | < 100 | < 100 | < 100 | < 100 | CCOC(=O)Cn1cc(Nc2ncc3ccn(CC4CCCC(C)C4)c3n2)cn1 (stereo not shown) [Compound 45, ethyl 2-(4-((7-((3-methylcyclohexyl)methyl)-7H-pyrrolo[2,3-d]pyrimidin-2-yl)amino)-1H-pyrazol-1-yl)acetate]
20 | < 100 | < 100 | < 100 | < 100 | CCC(Cn1ccc2cnc(Nc3cnn(CC(=O)OC[C@@H](C)O)c3)nc21)C(C)C (stereo partly drawn) [Compound 110, (R)-2-hydroxypropyl 2-(4-((7-(2-ethyl-3-methylbutyl)-7H-pyrrolo[2,3-d]pyrimidin-2-yl)amino)-1H-pyrazol-1-yl)acetate]
21 | < 100 | < 100 | < 100 | < 100 | CC(C)OC(=O)Cn1cc(Nc2ncc3ccn(C[C@@H](CCO)C(C)C)c3n2)cn1 [Compound 97, isopropyl (S)-2-(4-((7-(4-hydroxy-2-isopropylbutyl)-7H-pyrrolo[2,3-d]pyrimidin-2-yl)amino)-1H-pyrazol-1-yl)acetate]
22 | 100 to 1000 | 100 to 1000 | < 100 | < 100 | CCOC(=O)Cn1cc(Nc2ncc3ccn(CC(C)(C)C)c3n2)cn1 [Compound 20, ethyl 2-(4-((7-neopentyl-7H-pyrrolo[2,3-d]pyrimidin-2-yl)amino)-1H-pyrazol-1-yl)acetate]
23 | < 100 | < 100 | < 100 | < 100 | CCC(Cn1ccc2cnc(Nc3cnn(CC(=O)OCC(C)C)c3)nc21)C(C)C (stereo not shown) [Compound 108, isobutyl 2-(4-((7-(2-ethyl-3-methylbutyl)-7H-pyrrolo[2,3-d]pyrimidin-2-yl)amino)-1H-pyrazol-1-yl)acetate]
24 | < 100 | < 100 | < 100 | < 100 | CCOC(=O)Cn1cc(Nc2ncc3ccn(CC4CCCCC4)c3n2)cn1 [Compound 13, ethyl 2-(4-((7-(cyclohexylmethyl)-7H-pyrrolo[2,3-d]pyrimidin-2-yl)amino)-1H-pyrazol-1-yl)acetate]
25 | 100 to 1000 | 100 to 1000 | < 100 | 100 to 1000 | CC#CCn1ccc2cnc(Nc3cnn(CC(=O)OCC)c3)nc21 [Compound 23, ethyl 2-(4-((7-(but-2-yn-1-yl)-7H-pyrrolo[2,3-d]pyrimidin-2-yl)amino)-1H-pyrazol-1-yl)acetate]
